Assay [1] addresses T1, ATP-binding cassette sub-family C member 4 (Homo sapiens, UniProt O15439).
T1 sequence (O15439 whole entry): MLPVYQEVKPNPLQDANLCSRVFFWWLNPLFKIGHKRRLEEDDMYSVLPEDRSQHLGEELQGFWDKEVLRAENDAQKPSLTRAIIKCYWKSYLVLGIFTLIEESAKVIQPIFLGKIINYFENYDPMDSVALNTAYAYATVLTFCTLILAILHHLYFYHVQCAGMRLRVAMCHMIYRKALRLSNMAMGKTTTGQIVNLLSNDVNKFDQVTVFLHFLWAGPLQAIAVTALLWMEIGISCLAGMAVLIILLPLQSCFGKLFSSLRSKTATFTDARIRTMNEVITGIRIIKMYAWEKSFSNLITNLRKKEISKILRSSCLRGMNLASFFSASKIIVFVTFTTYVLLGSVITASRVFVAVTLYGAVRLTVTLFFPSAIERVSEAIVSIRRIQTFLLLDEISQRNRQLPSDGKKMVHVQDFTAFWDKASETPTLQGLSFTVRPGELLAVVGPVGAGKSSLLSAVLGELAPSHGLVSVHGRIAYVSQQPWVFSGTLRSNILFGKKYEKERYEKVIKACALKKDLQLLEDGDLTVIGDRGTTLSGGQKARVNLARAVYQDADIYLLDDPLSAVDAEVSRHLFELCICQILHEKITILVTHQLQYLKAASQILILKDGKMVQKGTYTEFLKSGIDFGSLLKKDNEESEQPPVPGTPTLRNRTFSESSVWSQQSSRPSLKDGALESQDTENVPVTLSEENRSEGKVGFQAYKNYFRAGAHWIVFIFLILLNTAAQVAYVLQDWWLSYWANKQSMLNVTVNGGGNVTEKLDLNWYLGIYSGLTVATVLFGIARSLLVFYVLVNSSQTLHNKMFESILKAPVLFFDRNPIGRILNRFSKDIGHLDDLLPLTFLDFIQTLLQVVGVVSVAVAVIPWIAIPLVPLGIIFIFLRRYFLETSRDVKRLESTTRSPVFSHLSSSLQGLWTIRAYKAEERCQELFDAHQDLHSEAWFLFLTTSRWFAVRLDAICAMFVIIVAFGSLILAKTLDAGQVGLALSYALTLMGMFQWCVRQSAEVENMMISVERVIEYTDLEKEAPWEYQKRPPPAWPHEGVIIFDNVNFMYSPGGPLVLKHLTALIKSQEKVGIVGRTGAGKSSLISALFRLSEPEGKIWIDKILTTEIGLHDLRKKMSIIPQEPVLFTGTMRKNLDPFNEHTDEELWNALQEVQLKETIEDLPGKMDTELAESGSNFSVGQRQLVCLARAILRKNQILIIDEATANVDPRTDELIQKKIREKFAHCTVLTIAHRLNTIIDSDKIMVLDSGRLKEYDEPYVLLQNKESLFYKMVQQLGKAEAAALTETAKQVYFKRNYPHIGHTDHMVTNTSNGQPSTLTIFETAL
The experiment in a line: Inhibition of human MRP4 overexpressed in Sf9 cell membrane vesicles assessed as uptake of [3H]-estradiol-17beta-D-glucuronide in presence of ATP and GSH measured after 20 mins by membrane vesicle transport assay. The assay is classed as ADME, cell-based.

Assay [2] concerns the target ATP-binding cassette sub-family C member 2 (Homo sapiens, UniProt Q92887). The assay can be described thus: Inhibition of human MRP2 overexpressed in Sf9 cell membrane vesicles assessed as uptake of [3H]-estradiol-17beta-D-glucuronide in presence of ATP and GSH measured after 20 mins by membrane vesicle transport assay.
For assay [3], the target named is ATP-binding cassette sub-family C member 3 (Homo sapiens, UniProt O15438). The assay can be described thus: Inhibition of human MRP3 overexpressed in Sf9 insect cell membrane vesicles assessed as uptake of [3H]-estradiol-17beta-D-glucuronide in presence of ATP and GSH measured after 10 mins by membrane vesicle transport assay. The assay is classed as ADME, cell-based.

In assay [4] the target is Bile salt export pump (Homo sapiens, UniProt O95342). The assay can be described thus: Inhibition of human BSEP overexpressed in Sf9 cell membrane vesicles assessed as uptake of [3H]-taurocholate in presence of ATP measured after 15 to 20 mins by membrane vesicle transport assay. It is filed as ADME, cell-based.

IC50 data for 32 molecules are collected here from ChEMBL document CHEMBL4028801, “A multifactorial approach to hepatobiliary transporter assessment enables improved therapeutic compound development” (Toxicol Sci, 2013).

Each structure is given as a SMILES string. Counter-ions that a name gives are not always drawn.

Chain of ATP-binding cassette sub-family C member 2 (Q92887 whole entry): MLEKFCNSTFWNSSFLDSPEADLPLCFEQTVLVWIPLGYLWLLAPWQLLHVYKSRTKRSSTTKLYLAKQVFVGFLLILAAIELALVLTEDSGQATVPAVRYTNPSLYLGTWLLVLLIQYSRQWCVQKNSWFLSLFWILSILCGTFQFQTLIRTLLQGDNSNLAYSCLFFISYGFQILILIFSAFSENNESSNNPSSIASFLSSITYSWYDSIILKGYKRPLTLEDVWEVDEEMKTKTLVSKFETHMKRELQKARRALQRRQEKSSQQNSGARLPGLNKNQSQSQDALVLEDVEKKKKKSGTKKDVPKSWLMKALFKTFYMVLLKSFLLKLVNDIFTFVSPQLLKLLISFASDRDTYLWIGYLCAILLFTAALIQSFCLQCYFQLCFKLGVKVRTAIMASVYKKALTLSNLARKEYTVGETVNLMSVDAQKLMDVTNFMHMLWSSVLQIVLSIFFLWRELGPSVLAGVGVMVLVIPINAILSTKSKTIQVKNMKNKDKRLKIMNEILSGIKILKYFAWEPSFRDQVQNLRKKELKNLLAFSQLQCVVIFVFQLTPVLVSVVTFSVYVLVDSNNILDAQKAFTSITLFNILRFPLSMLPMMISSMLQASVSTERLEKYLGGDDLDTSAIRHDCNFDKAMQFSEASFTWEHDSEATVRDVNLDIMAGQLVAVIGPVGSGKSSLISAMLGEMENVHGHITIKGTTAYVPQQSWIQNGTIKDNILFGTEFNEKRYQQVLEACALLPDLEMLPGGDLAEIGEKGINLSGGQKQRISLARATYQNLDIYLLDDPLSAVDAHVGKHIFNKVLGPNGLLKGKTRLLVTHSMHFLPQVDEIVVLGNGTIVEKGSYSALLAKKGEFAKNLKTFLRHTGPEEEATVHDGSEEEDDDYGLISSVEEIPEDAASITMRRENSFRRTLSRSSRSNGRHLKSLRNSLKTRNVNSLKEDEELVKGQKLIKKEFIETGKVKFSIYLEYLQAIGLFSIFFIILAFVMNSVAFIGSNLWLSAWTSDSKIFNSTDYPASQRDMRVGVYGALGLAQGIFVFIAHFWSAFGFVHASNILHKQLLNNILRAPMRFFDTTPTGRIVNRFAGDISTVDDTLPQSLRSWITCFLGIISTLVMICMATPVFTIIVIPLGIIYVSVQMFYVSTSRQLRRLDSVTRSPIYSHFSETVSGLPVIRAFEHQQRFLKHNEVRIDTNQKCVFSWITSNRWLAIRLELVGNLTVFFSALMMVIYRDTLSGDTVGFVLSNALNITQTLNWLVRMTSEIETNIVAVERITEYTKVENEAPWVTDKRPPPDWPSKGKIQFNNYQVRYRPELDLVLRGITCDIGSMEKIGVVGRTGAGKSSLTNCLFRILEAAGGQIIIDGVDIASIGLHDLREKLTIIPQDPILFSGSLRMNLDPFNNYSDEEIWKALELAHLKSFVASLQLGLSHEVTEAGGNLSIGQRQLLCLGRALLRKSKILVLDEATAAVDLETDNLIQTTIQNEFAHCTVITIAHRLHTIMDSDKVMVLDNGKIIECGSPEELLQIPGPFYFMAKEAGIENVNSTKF
Chain of Bile salt export pump (O95342 whole entry): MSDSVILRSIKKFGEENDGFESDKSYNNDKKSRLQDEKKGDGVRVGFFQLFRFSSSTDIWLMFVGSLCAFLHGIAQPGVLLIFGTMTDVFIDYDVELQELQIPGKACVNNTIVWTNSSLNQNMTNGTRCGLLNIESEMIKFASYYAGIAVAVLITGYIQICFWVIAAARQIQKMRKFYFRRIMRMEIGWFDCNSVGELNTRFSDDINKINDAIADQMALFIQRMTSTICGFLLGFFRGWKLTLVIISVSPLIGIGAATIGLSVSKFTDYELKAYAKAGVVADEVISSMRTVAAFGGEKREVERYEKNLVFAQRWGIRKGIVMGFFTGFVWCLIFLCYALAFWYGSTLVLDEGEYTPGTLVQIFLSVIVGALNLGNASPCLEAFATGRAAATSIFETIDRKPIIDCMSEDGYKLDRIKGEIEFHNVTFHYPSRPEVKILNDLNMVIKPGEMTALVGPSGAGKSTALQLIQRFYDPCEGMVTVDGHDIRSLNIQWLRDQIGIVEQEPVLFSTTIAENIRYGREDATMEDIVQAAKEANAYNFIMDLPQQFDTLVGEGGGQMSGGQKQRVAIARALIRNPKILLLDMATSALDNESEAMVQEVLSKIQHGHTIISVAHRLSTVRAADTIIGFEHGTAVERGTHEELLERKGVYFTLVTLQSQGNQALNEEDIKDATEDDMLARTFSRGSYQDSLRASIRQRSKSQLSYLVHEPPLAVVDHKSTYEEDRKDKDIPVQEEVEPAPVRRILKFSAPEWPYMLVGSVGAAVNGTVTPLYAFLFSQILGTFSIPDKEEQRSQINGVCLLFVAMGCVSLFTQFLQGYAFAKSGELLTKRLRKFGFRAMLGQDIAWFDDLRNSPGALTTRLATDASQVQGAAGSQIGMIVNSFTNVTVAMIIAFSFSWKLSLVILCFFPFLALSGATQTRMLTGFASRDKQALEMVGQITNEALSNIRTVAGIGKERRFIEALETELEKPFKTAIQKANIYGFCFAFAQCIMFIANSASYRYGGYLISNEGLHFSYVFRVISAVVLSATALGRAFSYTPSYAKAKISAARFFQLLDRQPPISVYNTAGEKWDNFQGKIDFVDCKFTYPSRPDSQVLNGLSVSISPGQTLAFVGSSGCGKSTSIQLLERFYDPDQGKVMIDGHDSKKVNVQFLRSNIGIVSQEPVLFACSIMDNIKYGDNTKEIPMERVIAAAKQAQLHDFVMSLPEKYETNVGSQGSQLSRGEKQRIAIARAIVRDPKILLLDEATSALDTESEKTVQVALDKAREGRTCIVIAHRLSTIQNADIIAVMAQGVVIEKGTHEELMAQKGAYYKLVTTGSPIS
Chain of ATP-binding cassette sub-family C member 3 (O15438 whole entry): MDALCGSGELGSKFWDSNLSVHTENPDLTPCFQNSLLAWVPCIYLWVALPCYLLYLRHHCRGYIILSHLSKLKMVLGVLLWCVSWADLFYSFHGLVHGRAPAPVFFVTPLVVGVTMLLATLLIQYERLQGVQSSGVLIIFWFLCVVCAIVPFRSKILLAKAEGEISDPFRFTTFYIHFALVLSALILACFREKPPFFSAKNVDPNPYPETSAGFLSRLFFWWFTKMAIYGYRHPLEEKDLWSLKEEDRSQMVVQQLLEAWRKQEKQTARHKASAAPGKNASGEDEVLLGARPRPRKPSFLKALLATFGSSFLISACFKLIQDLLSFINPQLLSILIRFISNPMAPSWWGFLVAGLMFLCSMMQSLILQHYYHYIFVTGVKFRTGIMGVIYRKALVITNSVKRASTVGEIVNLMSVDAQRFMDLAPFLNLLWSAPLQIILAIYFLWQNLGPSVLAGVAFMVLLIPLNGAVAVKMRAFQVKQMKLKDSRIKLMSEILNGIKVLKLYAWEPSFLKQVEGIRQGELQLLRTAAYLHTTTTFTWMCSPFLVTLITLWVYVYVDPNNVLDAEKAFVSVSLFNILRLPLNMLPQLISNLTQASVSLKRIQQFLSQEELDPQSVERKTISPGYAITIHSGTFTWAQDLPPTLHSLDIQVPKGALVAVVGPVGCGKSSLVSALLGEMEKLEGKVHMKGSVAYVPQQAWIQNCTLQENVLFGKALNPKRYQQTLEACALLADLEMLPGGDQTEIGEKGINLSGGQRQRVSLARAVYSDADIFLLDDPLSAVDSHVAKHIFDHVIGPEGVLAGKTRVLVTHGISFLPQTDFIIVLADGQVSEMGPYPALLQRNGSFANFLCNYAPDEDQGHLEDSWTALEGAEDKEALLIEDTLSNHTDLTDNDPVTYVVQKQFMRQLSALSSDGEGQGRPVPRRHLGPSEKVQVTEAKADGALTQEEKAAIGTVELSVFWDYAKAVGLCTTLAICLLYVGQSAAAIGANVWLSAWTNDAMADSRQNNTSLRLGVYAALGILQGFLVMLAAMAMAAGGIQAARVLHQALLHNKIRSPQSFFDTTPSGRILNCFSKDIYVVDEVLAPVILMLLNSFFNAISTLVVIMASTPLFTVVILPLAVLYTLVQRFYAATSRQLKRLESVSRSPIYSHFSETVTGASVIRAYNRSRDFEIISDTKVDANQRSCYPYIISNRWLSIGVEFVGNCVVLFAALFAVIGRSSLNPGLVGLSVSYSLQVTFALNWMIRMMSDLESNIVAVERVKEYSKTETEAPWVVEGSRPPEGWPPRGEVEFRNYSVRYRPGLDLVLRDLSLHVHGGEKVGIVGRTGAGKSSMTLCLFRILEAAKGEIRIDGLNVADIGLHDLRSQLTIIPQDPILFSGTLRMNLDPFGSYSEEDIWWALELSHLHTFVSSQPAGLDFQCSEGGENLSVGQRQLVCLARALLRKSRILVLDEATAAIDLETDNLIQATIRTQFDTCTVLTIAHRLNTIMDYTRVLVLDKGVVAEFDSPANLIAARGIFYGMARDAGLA

In the case of `CCOc1cc2ncc(C#N)c(Nc3ccc(OCc4ccccn4)c(Cl)c3)c2cc1NC(=O)/C=C/CN(C)C` [NERATINIB], the IC50 in assay [1] was 23 µM; in assay [2], more than 133 µM; in assay [3] it was more than 133 µM; in assay [4], 25 µM.
Consider `Cc1ccnc2c1NC(=O)c1cccnc1N2C1CC1` [NEVIRAPINE], for which the IC50 in assay [1], in assay [2], in assay [3] and in assay [4] was more than 133 µM in each case.
As for `O=C(NCCO[N+](=O)[O-])c1cccnc1` [NICORANDIL], the IC50 in assay [1], in assay [2], in assay [3] and in assay [4] was more than 133 µM each time.
On to `CN1CCC[C@H]1c1cccnc1` [NICOTINE], for which the IC50 in assay [1], in assay [2], in assay [3] and in assay [4] was more than 133 µM throughout.
In the case of `CCN(CC)C(=O)c1cccnc1` [NIKETHAMIDE], the IC50 in assay [1], in assay [2], in assay [3] and in assay [4] was more than 133 µM throughout.
For `CS(=O)(=O)Nc1ccc([N+](=O)[O-])cc1Oc1ccccc1` [NIMESULIDE], the IC50 in assay [1], in assay [2], in assay [3] and in assay [4] was more than 133 µM throughout.
As for `CC(=O)Oc1ccccc1C(=O)Nc1ncc([N+](=O)[O-])s1` [NITAZOXANIDE], the IC50 in assay [1], in assay [2], in assay [3] and in assay [4] was more than 133 µM throughout.
`O=C1CN=C(c2ccccc2)c2cc([N+](=O)[O-])ccc2N1` [NITRAZEPAM]: the IC50 in assay [1], in assay [2], in assay [3] and in assay [4] was more than 133 µM throughout.
As to `CNCCC=C1c2ccccc2CCc2ccccc21` [NORTRIPTYLINE], the IC50 in assay [1], in assay [2], in assay [3] and in assay [4] was more than 133 µM each time.
In the case of `CC1COc2c(N3CCN(C)CC3)c(F)cc3c(=O)c(C(=O)O)cn1c23` (stereo not drawn) [OFLOXACIN], the IC50 in assay [1], in assay [2], in assay [3] and in assay [4] was more than 133 µM in each case.
In the case of `Cc1cc2c(s1)Nc1ccccc1N=C2N1CCN(C)CC1` [OLANZAPINE], the IC50 in assay [1], in assay [2], in assay [3] and in assay [4] was more than 133 µM throughout.
`Cc1nccn1CC1CCc2c(c3ccccc3n2C)C1=O` (stereo not drawn) [ONDANSETRON]: the IC50 in assay [1], in assay [2], in assay [3] and in assay [4] was more than 133 µM each time.
Turning to `CCCCCCCCCCC[C@@H](C[C@@H]1OC(=O)[C@H]1CCCCCC)OC(=O)[C@H](CC(C)C)NC=O` [ORLISTAT], the IC50 in assay [1], in assay [2], in assay [3] and in assay [4] was more than 133 µM each time.
Take `Cc1ncc([N+](=O)[O-])n1CC(O)CCl` (stereo not drawn) [ORNIDAZOLE]: the IC50 in assay [1], in assay [2], in assay [3] and in assay [4] was more than 133 µM each time.
As to `CCOC(=O)C1=C[C@@H](OC(CC)CC)[C@H](NC(C)=O)[C@@H](N)C1` [OSELTAMIVIR PHOSPHATE], the IC50 in assay [1], in assay [2], in assay [3] and in assay [4] was more than 133 µM each time.
Turning to `NC(=O)N1c2ccccc2CC(=O)c2ccccc21` [OXCARBAZEPINE], the IC50 in assay [1], in assay [2], in assay [3] and in assay [4] was more than 133 µM throughout.
`Clc1ccc(CO/N=C(\Cn2ccnc2)c2ccc(Cl)cc2Cl)c(Cl)c1` [OXICONAZOLE NITRATE]: the IC50 in assay [1] is more than 133 µM; in assay [2], more than 133 µM; in assay [3], more than 133 µM; in assay [4], 49.3 µM.
For the molecule `C[C@]12C/C(=C/O)C(=O)C[C@@H]1CC[C@@H]1[C@@H]2CC[C@@]2(C)[C@H]1CC[C@]2(C)O` [OXYMETHOLONE], the IC50 was more than 133 µM in assay [1], more than 133 µM in assay [2], more than 133 µM in assay [3] and 48.7 µM in assay [4].
As for `CC(=O)O[C@H]1C[C@@H]2CC[C@@H]3[C@H](CC[C@@]4(C)[C@H]3C[C@H]([N+]3(C)CCCCC3)[C@@H]4OC(C)=O)[C@@]2(C)C[C@@H]1[N+]1(C)CCCCC1` [PANCURONIUM BROMIDE], the IC50 in assay [1], in assay [2], in assay [3] and in assay [4] was more than 133 µM each time.
For `COc1ccc(Cc2nccc3cc(OC)c(OC)cc23)cc1OC` [PAPAVERINE], the IC50 in assay [1] is 23.1 µM; in assay [2] it was more than 133 µM; in assay [3], more than 133 µM; in assay [4], more than 133 µM.
In the case of `Fc1ccc([C@@H]2CCNC[C@H]2COc2ccc3c(c2)OCO3)cc1` [PAROXETINE HYDROCHLORIDE], the IC50 in assay [1], in assay [2], in assay [3] and in assay [4] was more than 133 µM throughout.
As to `C[C@H]1COc2c(C3(N)CC3)c(F)cc3c(=O)c(C(=O)O)cn1c23` [PAZUFLOXACIN], the IC50 in assay [1], in assay [2], in assay [3] and in assay [4] was more than 133 µM throughout.
For the molecule `CCn1cc(C(=O)O)c(=O)c2cc(F)c(N3CCN(C)CC3)cc21` [PEFLOXACIN], the IC50 in assay [1], in assay [2], in assay [3] and in assay [4] was more than 133 µM throughout.
Turning to `Cc1cccn2c(=O)c(-c3nnn[nH]3)cnc12` [PEMIROLAST POTASSIUM], the IC50 in assay [1], in assay [2], in assay [3] and in assay [4] was more than 133 µM each time.
For the molecule `NC1=NC(=O)C(c2ccccc2)O1` (stereo not drawn) [PEMOLINE], the IC50 in assay [1], in assay [2], in assay [3] and in assay [4] was more than 133 µM each time.
Take `N=C(N)c1ccc(OCCCCCOc2ccc(C(=N)N)cc2)cc1` [PENTAMIDINE]: the IC50 in assay [1], in assay [2], in assay [3] and in assay [4] was more than 133 µM throughout.
Turning to `CC(=O)CCCCn1c(=O)c2c(ncn2C)n(C)c1=O` [PENTOXIFYLLINE], the IC50 in assay [1], in assay [2], in assay [3] and in assay [4] was more than 133 µM each time.
On to `CCCN1C[C@H](CSC)C[C@@H]2c3cccc4[nH]cc(c34)C[C@H]21` [PERGOLIDE MESYLATE], for which the IC50 in assay [1], in assay [2], in assay [3] and in assay [4] was more than 133 µM each time.
In the case of `CCC[C@H](N[C@@H](C)C(=O)N1[C@H](C(=O)O)C[C@@H]2CCCC[C@@H]21)C(=O)OCC` [PERINDOPRIL ERBUMINE], the IC50 in assay [1], in assay [2], in assay [3] and in assay [4] was more than 133 µM throughout.
For `OCCN1CCN(CCCN2c3ccccc3Sc3ccc(Cl)cc32)CC1` [PERPHENAZINE], the IC50 in assay [1], in assay [2], in assay [3] and in assay [4] was more than 133 µM each time.
In the case of `CCOc1ccc(NC(C)=O)cc1` [PHENACETIN], the IC50 in assay [1], in assay [2], in assay [3] and in assay [4] was more than 133 µM in each case.
As for `[H]/N=C(/N)N/C(=N/[H])NCCc1ccccc1` [PHENFORMIN], the IC50 in assay [1], in assay [2], in assay [3] and in assay [4] was more than 133 µM throughout.

Usually IC50 stands for the midpoint of a concentration-inhibition curve.
